According to patent US10351609B2, “Cell-based assay for determining mTOR activity” (Medical Diagnostic Laboratories, LLC, priority 2016, dated 2019):
Where two headings read alike, the source gives them in different places.

What was measured:
mTOR [1] = target: T1, mTOR (Homo sapiens, UniProt P42345); assay: 3A1 clone with stable expression of SB-eIF4E/LB-4E-BP2 (stable pool and single-cell clones); assay type: cell-based; conditions: 3A1 stable cell line pool expressing SB-eIF4E/LB-4E-BP2, FIG. 12
Method: Taking the 3A1 clone, we created a stable cell line pool (cells that underwent a minimum of 2 weeks of hygromycin selection) with stable expression of SB-eIF4E/ LB-4E-BP2.
Three to five days after transfection, the transfected cells were trypsinized and replated on to 6-count of 10 cm plates containing 300 μg/ml of hygromycin (ThermoFisher). For 7 days, media was replaced every 2-3 days with fresh hygromycin, after which cells were trypsinized, pooled and concentrated, and counted for plating as single cells on to 96-well plates. Fifty ml containing 400 cells were plated on to 5-count of 96-well plates with each well containing 100 μl of media+cell. DMEM conditioned with previous incubation with HEK293 cells was saved, filtered, and used for single-cell plating. The remainder of the hygromycin treated cells was then pooled and used as “stable pools” for experimentation.

S2035I mTOR [2] = target: T2, S2035I mTOR (Homo sapiens, UniProt P42345, S2035I); assay: B10 clone stably expressing SB-eIF4E, transient LB-4E-BP2 and S2035I mTOR; assay type: cell-based; conditions: FIG. 18
T2 construct: our assay has the ability to measure the function of full-length mTOR and its genetic variants; expressed in transfected cells

mTOR [3] = target: T1, mTOR; assay type: cell-based; conditions: 3A1 clone transiently transfected with SB-eIF4E/LB-4E-BP2, FIG. 11
Text: We compared single-cell clone termed “3A1” (FIG. 10A,B) with single-cell clone termed “1C3” (FIG. 10C,D) in the assay containing either LB-4E-BP1(Figure 10A,C) or LB-4E-BP2 (FIG. 10B,D).

[4] = test system: phosphorylation of 4E-BP1; conditions: read-out: reported IC50 in inhibiting phosphorylation of 4E-BP1; Western blot; Sedrani et al., 1998; cited from earlier work
WT mTOR [5] = target: T3, WT mTOR (Homo sapiens, UniProt P42345); assay: 3A1 clone stably expressing SB-eIF4E, transiently expressing LB-4E-BP2 and WT mTOR; assay type: cell-based; conditions: 3A1 stably SB-eIF4E, concentration curves at least 5 logs, FIG. 16
T3 construct: our assay has the ability to measure the function of full-length mTOR and its genetic variants; expressed in transfected cells
Text: (§1) To overcome this issue, we created a stable cell pool with the 3A1 clone, stably expressing only SB-eIF4E.

S2035I mTOR [6] = target: T2, S2035I mTOR; assay: 3A1 clone stably expressing SB-eIF4E, transiently expressing LB-4E-BP2 and S2035I mTOR; assay type: cell-based; conditions: 3A1 stably SB-eIF4E, concentration curves at least 5 logs, FIG. 16
Text: as §1

[7] = test system: phosphorylation of the ribosomal protein S6; conditions: Guichard et al., 2015; read-out: IC50 for inhibition of phosphorylation of the ribosomal protein S6; cited from earlier work
WT mTOR [8] = target: T3, WT mTOR; assay: B10 clone (4E-BP dKO, MTOR genomic modification) stably expressing SB-eIF4E, transient LB-4E-BP2 and WT mTOR; assay type: cell-based; conditions: FIG. 18
cellular proliferation = conditions: Hsieh et al., 2012; read-out: EC50 for the inhibition of cellular proliferation; cited from earlier work

| concentration dependence of luminescence (mTOR [3]) | concentration dependence of signal (S2035I mTOR [6]) | SMILES | concentration dependence of luminescence (mTOR [1]) | concentration dependence of signal (S2035I mTOR [2]) | IC50 [4] [nM] | concentration dependence of signal (WT mTOR [5]) | IC50 [7] [nM] | concentration dependence of signal (WT mTOR [8]) | EC50 (cellular proliferation) [nM] |
| --- | --- | --- | --- | --- | --- | --- | --- | --- | --- |
| concentration dependent activation | rapamycin resistance | CO[C@H]1C[C@@H]2CC[C@@H](C)[C@@](O)(O2)C(=O)C(=O)N2CCCC[C@H]2C(=O)O[C@H]([C@H](C)C[C@@H]2CC[C@@H](OCCO)[C@H](OC)C2)CC(=O)[C@H](C)/C=C(\C)[C@@H](O)[C@@H](OC)C(=O)[C@H](C)C[C@H](C)/C=C/C=C/C=C/1C [everolimus] | concentration-dependent activation of luminescence | cleaner difference between the WT and S2035I mTOR | 1.6 to 2.4 | concentration-dependent increase in signal |  |  |  |
| concentration dependent activation | concentration-dependent increase | CNC(=O)c1cccc(-c2ccc3c(N4CCOC[C@@H]4C)nc(N4CCOC[C@@H]4C)nc3n2)c1 [AZD2014] | concentration-dependent activation of luminescence | concentration-dependent increase for both mTORs |  | concentration-dependent increase in signal | 210 | concentration-dependent increase for both mTORs |  |

Continued, molecule first:

| SMILES | concentration dependence of luminescence (mTOR [3]) | concentration dependence of signal (S2035I mTOR [6]) | concentration dependence of luminescence (mTOR [1]) | concentration dependence of signal (S2035I mTOR [2]) | IC50 [4] [nM] | concentration dependence of signal (WT mTOR [5]) | IC50 [7] [nM] | concentration dependence of signal (WT mTOR [8]) | EC50 (cellular proliferation) [nM] |
| --- | --- | --- | --- | --- | --- | --- | --- | --- | --- |
| CCc1cncnc1N1CCN(Cc2nc3ccc(C(F)(F)F)cc3[nH]2)CC1 [PF4708671] |  |  | did not |  |  |  |  |  |  |
| CO[C@@H](C)Cn1c(=O)n(C)c2cnc3ccc(-c4cncc(C(C)(C)O)c4)cc3c21 [LY3023414] |  |  | concentration-dependent increase in luminescence |  |  |  |  |  |  |
| CO[C@H]1CC[C@H](N2C(=O)CNc3ncc(-c4ccc(C(C)(C)O)nc4)nc32)CC1 [CC223] |  |  | concentration-dependent increase in luminescence |  |  |  |  |  |  |
| CC(C)n1nc(-c2ccc3oc(N)nc3c2)c2c(N)ncnc21 [INK128] | concentration dependent activation | concentration-dependent increase | concentration-dependent activation of luminescence | concentration-dependent increase for both mTORs |  | concentration-dependent increase in signal |  | concentration-dependent increase for both mTORs | 17 |
